Among the data in patent US20090099195A1 (ASTRAZENECA AB, priority 2007, published 2009) are IC50 values, retold here.

For assay [1], the target named is T1, rat P2X2/3 (rat P2X3 co-expressed with rat P2X2) (Rattus norvegicus, UniProt P49653+P49654).
T1 sequence (P49654 1-397): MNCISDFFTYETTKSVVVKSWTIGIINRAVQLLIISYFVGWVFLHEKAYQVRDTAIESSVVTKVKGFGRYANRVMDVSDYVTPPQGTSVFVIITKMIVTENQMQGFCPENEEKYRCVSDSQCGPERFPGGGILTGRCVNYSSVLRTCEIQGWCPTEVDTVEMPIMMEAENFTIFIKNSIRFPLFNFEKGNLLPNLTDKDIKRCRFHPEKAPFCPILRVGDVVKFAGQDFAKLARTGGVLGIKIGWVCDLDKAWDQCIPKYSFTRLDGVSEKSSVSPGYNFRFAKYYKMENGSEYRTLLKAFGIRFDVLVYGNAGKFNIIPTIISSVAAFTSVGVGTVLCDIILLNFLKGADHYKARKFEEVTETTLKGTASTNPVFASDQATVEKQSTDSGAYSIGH
T1 sequence (P49653 1-472): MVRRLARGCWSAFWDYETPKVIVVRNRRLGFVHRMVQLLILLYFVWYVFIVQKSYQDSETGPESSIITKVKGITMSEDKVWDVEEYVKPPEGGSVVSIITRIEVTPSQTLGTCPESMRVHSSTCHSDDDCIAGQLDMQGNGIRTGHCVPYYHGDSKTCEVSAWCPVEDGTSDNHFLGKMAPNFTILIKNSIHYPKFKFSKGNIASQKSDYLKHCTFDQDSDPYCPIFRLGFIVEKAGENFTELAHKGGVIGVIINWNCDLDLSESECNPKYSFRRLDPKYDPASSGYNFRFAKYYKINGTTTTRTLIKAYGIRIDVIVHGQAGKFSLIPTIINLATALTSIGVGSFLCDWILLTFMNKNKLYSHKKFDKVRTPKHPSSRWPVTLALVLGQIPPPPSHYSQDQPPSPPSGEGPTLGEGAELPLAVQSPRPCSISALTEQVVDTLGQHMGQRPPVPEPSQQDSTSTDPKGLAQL
In words: rat P2X2/3 FLIPR calcium (Fluo-4) antagonist assay. The settings on record: Rat P2X2/3 FLIPR Mean IC50 (nM), HEK-TREX cells, tetracycline-induced rat P2X3 with constitutive rat P2X2; agonist 500 nM α,β-methylene-ATP.
Protocol: The assay used a calcium indicator dye (Fluo-4) that emits fluorescence, the intensity of which is related to the concentration of calcium that entered the cell when P2X3 was activated and the channel opened. Activation of hP2X3 or rat P2X3 and rat P2X2/3 (from the coexpression of rat P2X3 and rat P2×2) is elicited the by P2X3 agonist α,β methylene-ATP (Sigma M6517), and the resulting fluorescence is measured with a FLIPR II™ instrument (Molecular Devices). Compounds are tested for their ability to inhibit the agonist-induced fluorescent signal.
For the rat P2X2/3 HEK-TREX cells, induction of the rat P2X3 expression is used to generate the rat P2X2/3 channels in HEK-TREX cells and performed by addition of 1 μg/mL tetracycline (Invitrogen) 24 h prior to compounds testing to the HEK-TREX expressing the rat P2X2 constitutively. On the day of the experiment, the cells and test compounds are prepared as follows. […] After preparing the compounds, the medium is removed from the cell plates by inversion. A loading solution of 30 μL assay buffer containing 4 μM of the calcium indicator dye FLUO-4 AM (Molecular Probes F14202) is added to each well using a Multidrop (Labsystems). […] The incubation is terminated by washing the cells four times in assay buffer using a Skatron Embla (Molecular Devices), and 25 μL of assay buffer was left in each well. Cell plates are then transferred to the FLIPR. Experiments are initiated by measuring a baseline fluorescence reading for 10 seconds, followed by the addition of 12.5 μL of cpds and data sampling for a total 280 seconds. The experiments are terminated by addition of 12.5 μL of a reference agonist (500 nM α,β-methylene-ATP) or buffer, producing a final assay volume of 50 μL followed by data sampling for an additional 280 seconds.
In P2X3 antagonist experiments (human and rat assays) data are analysed as normalised maximal peak fluorescence monitored following agonist addition and calculated as percent of relative fluorescent counts from control agonist. The dose-response antagonist inhibition curves are analyzed in a 4-parameter sigmoidal fit using a non-linear curve-fitting program (XLfit version 5.0.6, ID Business Solutions Limited, Guildford, UK).

The target of assay [2] is T2, hP2X3 (human Purinergic P2X receptors subtype 3), clone B (Homo sapiens, UniProt P56373).
T2 sequence (P56373 1-397): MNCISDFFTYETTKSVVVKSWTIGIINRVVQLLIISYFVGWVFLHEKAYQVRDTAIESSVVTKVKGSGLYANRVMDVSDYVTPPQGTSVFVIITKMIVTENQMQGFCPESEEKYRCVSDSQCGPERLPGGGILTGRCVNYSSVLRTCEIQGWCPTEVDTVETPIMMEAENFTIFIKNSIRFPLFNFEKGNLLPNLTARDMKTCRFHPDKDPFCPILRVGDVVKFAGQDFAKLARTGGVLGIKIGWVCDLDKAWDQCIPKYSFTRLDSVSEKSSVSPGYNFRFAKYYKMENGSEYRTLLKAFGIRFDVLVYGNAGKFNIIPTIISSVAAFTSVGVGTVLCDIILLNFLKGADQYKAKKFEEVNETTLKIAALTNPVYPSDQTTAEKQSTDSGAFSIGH
In words: hP2X3 FLIPR calcium (Fluo-4) antagonist assay, clone B. The settings on record: Human P2X3 FLIPR Clone B IC50 (nM), RLE cells expressing hP2X3 clone B (NM_002559); agonist 500 nM α,β-methylene-ATP.

For the compound `CC(=O)N1CCN(c2nc(NCc3ccc(OC(F)(F)F)cc3C)c3c(n2)C(=O)N(C(C)C)C3)CC1` [Example 122, 2-(4-acetylpiperazin-1-yl)-6-isopropyl-4-{[2-methyl-4-(trifluoromethoxy)benzyl]amino}-5,6-dihydro-7H-pyrrolo[3,4-d]pyrimidin-7-one], the results for the IC50 in assay [1] and in assay [2] were 6320 nM and 130 nM, respectively.
In the case of `CC(=O)N1CCN(c2nc(NCc3cc(-c4ccccc4)on3)c3c(n2)C(=O)N(C(C)C)C3)CC1` [Example 144, 4-(4-acetylpiperazin-1-yl)-2-[(5-phenyl-1,2-oxazol-3-yl)methylamino]-8-propan-2-yl-3,5,8-triazabicyclo[4.3.0]nona-1,3,5-trien-7-one], the IC50 is 4800 nM in assay [1] and 45 nM in assay [2].
The matching figures for `CC(=O)N1CCN(c2nc(NC(C)(C)Cc3ccc(F)cc3)c3c(n2)C(=O)N(C(C)C)C3)CC1` [Example 14, 2-(4-acetylpiperazin-1-yl)-4-{[2-(4-fluorophenyl)-1,1-dimethylethyl]amino}-6-isopropyl-5,6-dihydro-7H-pyrrolo[3,4-d]pyrimidin-7-one]: 18500 nM and 110 nM.
Regarding `CC(C)N1Cc2c(NC(C)(C)Cc3ccc(F)cc3)nc(N3CCN4C(=O)OC[C@H]4C3)nc2C1=O` [Example 140, (R)-7-{4-[2-(4-Fluoro-phenyl)-1,1-dimethyl-ethylamino]-6-isopropyl-7-oxo-6,7-dihydro-5H-pyrrolo[3,4-d]pyrimidin-2-yl}-hexahydro-oxazolo[3,4-a]pyrazin-3-one], the figures for the IC50 in assay [1] and in assay [2] were 8470 nM and 1100 nM, respectively.
For the compound `CC(=O)N1CCN(c2nc(NC3(c4ccc(Cl)cc4)CC3)c3c(n2)C(=O)N(C(C)C)C3)CC1` [Example 130], the figures for the IC50 in assay [1] and in assay [2] were 13300 nM and 2300 nM, respectively.
For the compound `CC(=O)N1CCN(c2nc(N[C@H](C)c3cnc4ccccc4c3)c3c(n2)C(=O)N(C(C)C)C3)CC1` [Example 233, (R)-2-(4-acetylpiperazin-1-yl)-6-isopropyl-4-(1-(quinolin-3-yl)ethylamino)-5H-pyrrolo[3,4-d]pyrimidin-7(6H)-one], the results for the 50% inhibitory concentration (IC50) in assay [1] and in assay [2] were 74.4 nM and 21 nM, respectively.
For `CC(=O)N1CCN(c2nc3c(c(N4CCC[C@@H]4C(=O)Oc4ccccc4)n2)CN(C(C)C)C3=O)CC1` [Example 304, phenyl (2R)-1-[4-(4-acetylpiperazin-1-yl)-7-oxo-8-propan-2-yl-3,5,8-triazabicyclo[4.3.0]nona-1,3,5-trien-2-yl]pyrrolidine-2-carboxylate], the IC50 was 8730 nM in assay [1] and 71 nM in assay [2].
With `CC(=O)N1CCN(c2nc(NCc3cnc4ccccc4c3)c3c(n2)C(=O)N(C(C)C)C3)CC1C` (stereo not shown) [Example 142, 2-(4-Acetyl-3-methyl-piperazin-1-yl)-6-isopropyl-4-[(quinolin-3-ylmethyl)amino]-5,6-dihydro-pyrrolo[3,4-d]pyrimidin-7-one], the figures for the IC50 in assay [1] and in assay [2] were 7550 nM and 57 nM, respectively.
On the same counts, the results for `CC(=O)N1CCN(c2nc3c(c(N4CCCC4Cc4ccc(C)cc4)n2)CN(C(C)C)C3=O)CC1` (stereo not shown) [Example 47, 2-(4-acetylpiperazin-1-yl)-6-isopropyl-4-[2-(4-methylbenzyl)pyrrolidin-1-yl]-5,6-dihydro-7H-pyrrolo[3,4-d]pyrimidin-7-one] are 2680 nM and 130 nM.
Regarding `CC(=O)N1CCN(c2nc(NCc3cnn(-c4ccccc4)c3)c3c(n2)C(=O)N(C(C)C)C3)CC1` [Example 146, 4-(4-acetylpiperazin-1-yl)-2-[(1-phenylpyrazol-4-yl)methylamino]-8-propan-2-yl-3,5,8-triazabicyclo[4.3.0]nona-1,3,5-trien-7-one], the IC50 in assay [1] amounted to 2440 nM; in assay [2], 67 nM.
Consider `CCC(C)N1Cc2c(NCc3cc4ccccc4cn3)nc(N3CCN(C(C)=O)CC3)nc2C1=O` (single isomer, unassigned; (-)) [Example 311, (−)-2-(4-acetylpiperazin-1-yl)-4-(3-isoquinolylmethylamino)-6-sec-butyl-5H-pyrrolo[3,4-d]pyrimidin-7-one], for which the IC50 in assay [1] was 1680 nM; in assay [2], 28 nM.
On to `CC(=O)N1CCN(c2nc3c(c(N(Cc4cc5ccccc5cn4)CC4CC4)n2)CN(C(C)C)C3=O)CC1` [Example 253, 2-(4-acetylpiperazin-1-yl)-4-((cyclopropylmethyl)(isoquinolin-3-ylmethyl)amino)-6-isopropyl-5H-pyrrolo[3,4-d]pyrimidin-7(6H)-one], for which the IC50 worked out at 1110 nM in assay [1] and 63 nM in assay [2].
As to `CC(=O)N1CCN(c2nc3c(c(N4CCCC4c4cnc5ccccc5c4)n2)CN(C(C)C)C3=O)CC1` (single isomer, unassigned) [Example 283, 4-(4-acetylpiperazin-1-yl)-8-propan-2-yl-2-(2-quinolin-3-ylpyrrolidin-1-yl)-3,5,8-triazabicyclo[4.3.0]nona-1,3,5-trien-7-one], the IC50 worked out at 253 nM in assay [1] and 87 nM in assay [2].
On the same counts, the results for `CC(=O)N1CCN(c2nc(N[C@H](C)c3cccc(C(F)(F)F)c3)c3c(n2)C(=O)N(C(C)C)C3)CC1` [Example 230, (R)-2-(4-acetylpiperazin-1-yl)-6-isopropyl-4-(1-(3-(trifluoromethyl)phenyl)ethylamino)-5H-pyrrolo[3,4-d]pyrimidin-7(6H)-one] are 7380 nM and 87 nM.
On to `CC(=O)N1CCN(c2nc3c(c(N4CCC[C@@H]4C(=O)OCc4ccccc4)n2)CN(C(C)C)C3=O)CC1` [Example 265, benzyl (2R)-1-[4-(4-acetylpiperazin-1-yl)-7-oxo-8-propan-2-yl-3,5,8-triazabicyclo[4.3.0]nona-1,3,5-trien-2-yl]pyrrolidine-2-carboxylate], for which the results for the half-maximal inhibitory concentration (IC50) in assay [1] and in assay [2] were 15700 nM and 850 nM, respectively.
The matching figures for `COc1ccc(CC2CCCN2c2nc(N3CCN(C(C)=O)CC3)nc3c2CN(C(C)C)C3=O)cc1` (single isomer, unassigned) [Example 287, 2-(4-acetylpiperazin-1-yl)-6-isopropyl-4-[2-[(4-methoxyphenyl)methyl]pyrrolidin-1-yl]-5H-pyrrolo[3,4-d]pyrimidin-7-one]: 1500 nM and 53 nM.
Consider `COc1cccc(C2CCCN2c2nc(N3CCN(C(C)=O)CC3)nc3c2CN(C(C)C)C3=O)c1` (stereo not shown) [Example 131, 2-(4-Acetylpiperazin-1-yl)-6-isopropyl-4-(2-(3-methoxyphenyl)pyrrolidin-1-yl)-5H-pyrrolo[3,4-d]pyrimidin-7(6H)-one], for which the IC50 in assay [1] was 40000 nM; in assay [2], 6000 nM.
Turning to `CC(=O)N1CCN(c2nc(NCc3ccc4nc(C)ccc4c3)c3c(n2)C(=O)N(C(C)C)C3)CC1` [Example 242, 2-(4-acetylpiperazin-1-yl)-6-isopropyl-4-((2-methylquinolin-6-yl)methylamino)-5H-pyrrolo[3,4-d]pyrimidin-7(6H)-one], the IC50 in assay [1] was determined as 10400 nM; in assay [2], 65 nM.
As for `CC(=O)N1CCN(c2nc(N[C@H](C)c3ccc(I)cc3)c3c(n2)C(=O)N(C(C)C)C3)CC1` [Example 165, (R)-2-(4-acetylpiperazin-1-yl)-4-(1-(4-iodophenyl)ethylamino)-6-isopropyl-5H-pyrrolo[3,4-d]pyrimidin-7(6H)-one], the IC50 in assay [1] was 11100 nM; in assay [2], 43 nM.
Take `CC(=O)N1CCN(c2nc3c(c(N4CCCC4c4cc(C)cc(C)c4)n2)CN(C(C)C)C3=O)CC1` (stereo not shown) [Example 270, 4-(4-acetylpiperazin-1-yl)-2-[2-(3,5-dimethylphenyl)pyrrolidin-1-yl]-8-propan-2-yl-3,5,8-triazabicyclo[4.3.0]nona-2,4,10-trien-7-one]: the IC50 in assay [1] came to 9910 nM; in assay [2] it was 340 nM.

As usually defined, the IC50 is the point on the concentration scale where inhibition reaches its midpoint.
